Data taken from patent US20260256827A1, “Methods for treating lower back pain with hyaluronic acid” (priority 2023, published 2026).

What was measured:
Assay type in all cases: in vivo, human
[1] = system: chronic lower back pain with enthesopathy; assay: Example 3: HA injections, patient, pain severity on visual analog numerical rating scale; conditions: tramadol and cyclobenzaprine together, before HA
Experimental: (§1) In the Examples, unless otherwise specified, pain severity was assessed using a visual analog numerical rating scale ranging from 0 (no pain) to 10 (worst pain possible), and hyaluronic acid (HA) injections (Hyalgan™, 10 mg/mL, MW: 500,000 to 730,000 Daltons in 2 mL pre-filled syringes) were administered using a 30 gauge, ½″ needle.

[2] = system: chronic low back pain; assay: Example 4: Hyalgan injections, person, pain severity; conditions: before Hyalgan
Experimental: as §1
Hyaluronic acid injections were administered in the form of Hyalgan ([…]) along the lateral margin of the left PSIS (two injections; 1 mL each). […] […] received subsequent injections on this visit: again two injections of 1 mL each along the lateral margins of […] left PSIS.

[3] = system: peripheral neuropathy foot pain; assay: Example 2 patient: treatment of peripheral neuropathy / foot pain; conditions: 75 mg bid from Nov. 9, 2023
Experimental: Beginning on Oct. 2, 2023, the patient was treated for peripheral neuropathy lidocaine/prilocaine 2.5% cream applied to their feet bilaterally. […] 8, 2024.

[4] = system: chronic, bilateral lower back pain; assay: Example 2: HA injections, patient, pain severity on visual analog numerical rating scale; conditions: 75 mg bid from Nov. 9, 2023; recurrence reported Jan. 8, 2024
Experimental: as §1
On Oct. 5, 2023, a patient reported chronic, bilateral lower back pain, and more recent onset of pain in their feet that slowly spread to their lower leg, but mostly resides on the plantar surface of their feet. The lower back pain severity was 7/10 (between severe and very severe) at rest, and up to 9/10 (between very severe and worse pain possible) after standing all day.
On Oct. […] The injection locations were determined by findings of focal tenderness of the palpated sites illustrated in FIG. 1.
On Oct. 12, 2023, patient reported maximum lower back pain severity of 5-6/10 (severe). […] These injection locations were again determined by findings of focal tenderness of palpated sites illustrated in FIG. 1.
On Jan. […] These injection locations were again determined by findings of focal tenderness of palpated sites illustrated in FIG. 1.
On Mar. […] These injection locations were again determined by findings of focal tenderness of palpated sites illustrated in FIG. 1.

SMILES | benefit of ongoing treatment for lower back pain [1] | benefit of prior treatment for low back pain [2] | effect on foot pain [3] | effect on recurrence of lower back pain [4]
CN(C)CCC=C1c2ccccc2C=Cc2ccccc21 [cyclobenzaprine] | helped only marginally | without benefit |  | 
CC(C)Cc1ccc(C(C)C(=O)O)cc1 (stereo not drawn) [ibuprofen] |  | without benefit |  | 
CC(C)C[C@H](CN)CC(=O)O [pregabalin] |  |  | helpful | did not prevent the recurrence
COc1cccc(C2(O)CCCCC2CN(C)C)c1 (stereo not drawn) [tramadol] | helped only marginally |  |  | 
